Test [1] deals with T1, RFS-1/RIP-1 (Caenorhabditis elegans, UniProt P34348).
T1 sequence (P34348 1-245): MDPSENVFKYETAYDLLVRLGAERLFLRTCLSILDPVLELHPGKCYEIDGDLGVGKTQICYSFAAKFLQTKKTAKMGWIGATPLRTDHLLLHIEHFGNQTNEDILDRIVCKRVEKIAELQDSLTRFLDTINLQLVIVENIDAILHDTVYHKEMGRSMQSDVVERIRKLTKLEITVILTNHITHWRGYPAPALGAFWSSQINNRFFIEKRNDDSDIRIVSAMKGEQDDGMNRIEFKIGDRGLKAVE
T1 sequence (Q21621 1-209 partner): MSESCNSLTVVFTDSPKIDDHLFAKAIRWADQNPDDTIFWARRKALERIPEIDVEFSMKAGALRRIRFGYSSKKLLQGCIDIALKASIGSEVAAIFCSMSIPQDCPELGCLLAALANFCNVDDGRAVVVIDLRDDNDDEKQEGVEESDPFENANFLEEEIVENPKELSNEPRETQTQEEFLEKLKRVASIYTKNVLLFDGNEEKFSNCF
Briefly: stopped-flow Cy3 fluorescence, binding to RAD-51-ssDNA filament […]' end. The test is classed as biochemical. The conditions noted are these: 25°C; 50 nM RFS-1/RIP-1 pre-incubated with ADP; 1 μM RAD-51, 15 nM 5'-Cy3-43-mer.

Test [2] deals with T2, RAD-51 (Caenorhabditis elegans, UniProt G5EGG8).
T2 sequence (G5EGG8 1-357): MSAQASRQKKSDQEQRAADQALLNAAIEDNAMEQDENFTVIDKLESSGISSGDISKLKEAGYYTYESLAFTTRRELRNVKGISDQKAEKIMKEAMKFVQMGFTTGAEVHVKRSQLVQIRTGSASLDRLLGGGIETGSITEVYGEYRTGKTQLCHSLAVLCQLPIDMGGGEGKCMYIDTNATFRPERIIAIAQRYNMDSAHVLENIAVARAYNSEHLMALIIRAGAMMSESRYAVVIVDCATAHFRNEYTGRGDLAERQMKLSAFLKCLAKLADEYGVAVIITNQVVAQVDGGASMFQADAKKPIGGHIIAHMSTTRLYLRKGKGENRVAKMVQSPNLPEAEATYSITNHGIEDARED
Briefly: fluorescence titration, fixed TNP-ATP concentration. It is filed as binding. The conditions noted are these: 25°C; fluorescent ATP analog; labelled compound.

The values that follow come from publication PMC5145814 (Molecular Cell, 2016).

As to `Nc1ncnc2c1ncn2[C@@H]1O[C@H](COP(=O)(O)OP(=O)(O)O)[C@@H](O)[C@H]1O` [ADP], in test [1], the “Δ Cy3 fluorescence” value is “RFS-1/RIP-1 was pre-incubated with ADP (Figures 5C and 5D)”.
Broadly, the Kd is a measure of binding affinity in units of concentration. Compound TNP-ATP came in with a Kd in test [2] of about 3.5 µM.
